Key:
[1] = biological target: T1, HiBit-BRM fusion protein (Homo sapiens, UniProt P51531); experiment: HiBiT-BRM cell-based degradation assay (Nano-Glo HiBiT Lytic Detection, 24 h); conditions: stable HeLa cell line expressing HiBiT-BRM; for DC50: read-out: BRM HiBit Degradation IC50
T1 construct: expressed in transfected cells
How it was run: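 A stable HeLa line expressing HiBiT-BRM was treated for 24 h with compound in a 10-point, 3-fold series (30 μM final top dose). Remaining HiBiT-BRM was read by lytic LgBiT complementation luminescence. % degradation was normalised to DMSO (high control) and 2 μM reference BRM/BRG1 degrader (low control).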

[2] = biological target: T2, HiBit-BRG1 fusion protein (Homo sapiens, UniProt P51532); experiment: HiBiT-BRG1 cell-based degradation assay (Nano-Glo HiBiT Lytic Detection, 24 h); conditions: stable HeLa cell line expressing HiBit-BRG1 and LgBit; for Dmax: read-out: BRG1 HiBit Degradation Maximum (%); for DC50: read-out: BRMG1 HiBit Degradation IC50
T2 construct: expressed in transfected cells
How it was run: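 HeLa cells stably expressing HiBit-BRG1 and LgBit, treated 24 h with 3-fold dilutions (10 points, duplicate, 30 μM final top dose). Luminescence read after Nano-Glo HiBiT lytic reagent; % degradation scaled between DMSO (high) and 2 μM reference BRM/BRG1 degrader (low control).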

T2 sequence (P51532 whole entry, the tested form may be a part): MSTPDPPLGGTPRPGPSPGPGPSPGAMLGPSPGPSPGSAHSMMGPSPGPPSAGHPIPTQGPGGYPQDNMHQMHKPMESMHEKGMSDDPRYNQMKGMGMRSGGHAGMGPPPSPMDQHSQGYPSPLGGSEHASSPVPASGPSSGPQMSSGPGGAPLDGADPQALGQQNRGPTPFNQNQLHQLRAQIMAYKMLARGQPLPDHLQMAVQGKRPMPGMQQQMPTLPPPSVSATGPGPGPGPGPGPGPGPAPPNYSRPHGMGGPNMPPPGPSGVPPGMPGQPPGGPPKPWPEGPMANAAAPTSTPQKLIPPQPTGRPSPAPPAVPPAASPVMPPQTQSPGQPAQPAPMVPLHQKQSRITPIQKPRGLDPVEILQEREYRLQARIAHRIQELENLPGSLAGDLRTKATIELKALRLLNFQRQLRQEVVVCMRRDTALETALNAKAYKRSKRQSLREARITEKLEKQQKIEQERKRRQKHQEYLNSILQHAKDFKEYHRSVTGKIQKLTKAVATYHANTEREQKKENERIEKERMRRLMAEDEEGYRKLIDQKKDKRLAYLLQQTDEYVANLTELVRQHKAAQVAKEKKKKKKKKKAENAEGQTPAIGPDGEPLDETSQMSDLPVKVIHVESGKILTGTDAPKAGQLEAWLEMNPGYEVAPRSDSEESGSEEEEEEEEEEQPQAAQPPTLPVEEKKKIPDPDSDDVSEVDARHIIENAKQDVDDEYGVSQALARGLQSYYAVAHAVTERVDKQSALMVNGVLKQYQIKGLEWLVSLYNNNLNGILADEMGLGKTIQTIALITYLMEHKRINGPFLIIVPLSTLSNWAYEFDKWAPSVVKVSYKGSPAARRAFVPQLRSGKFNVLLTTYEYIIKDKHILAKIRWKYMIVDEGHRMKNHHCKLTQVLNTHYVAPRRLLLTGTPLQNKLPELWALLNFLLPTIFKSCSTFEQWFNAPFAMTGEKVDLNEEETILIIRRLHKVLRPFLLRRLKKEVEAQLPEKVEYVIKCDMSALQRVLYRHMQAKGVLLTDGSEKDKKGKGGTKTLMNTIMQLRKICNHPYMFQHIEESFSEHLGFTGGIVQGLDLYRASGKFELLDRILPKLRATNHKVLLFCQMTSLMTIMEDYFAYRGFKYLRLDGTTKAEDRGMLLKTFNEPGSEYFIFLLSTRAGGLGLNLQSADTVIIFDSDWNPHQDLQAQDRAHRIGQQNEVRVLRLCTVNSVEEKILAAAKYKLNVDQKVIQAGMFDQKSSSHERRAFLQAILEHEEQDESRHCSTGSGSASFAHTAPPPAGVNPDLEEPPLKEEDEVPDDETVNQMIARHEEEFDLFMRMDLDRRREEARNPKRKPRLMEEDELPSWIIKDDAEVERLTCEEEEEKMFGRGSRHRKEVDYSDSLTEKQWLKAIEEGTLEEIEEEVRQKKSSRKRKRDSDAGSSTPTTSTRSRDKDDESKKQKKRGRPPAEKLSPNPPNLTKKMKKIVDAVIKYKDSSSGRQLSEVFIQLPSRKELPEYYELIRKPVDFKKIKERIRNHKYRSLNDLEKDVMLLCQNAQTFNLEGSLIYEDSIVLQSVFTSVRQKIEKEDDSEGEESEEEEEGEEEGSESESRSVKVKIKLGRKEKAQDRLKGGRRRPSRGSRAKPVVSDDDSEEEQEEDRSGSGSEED
T1 sequence (P51531 whole entry, the tested form may be a part): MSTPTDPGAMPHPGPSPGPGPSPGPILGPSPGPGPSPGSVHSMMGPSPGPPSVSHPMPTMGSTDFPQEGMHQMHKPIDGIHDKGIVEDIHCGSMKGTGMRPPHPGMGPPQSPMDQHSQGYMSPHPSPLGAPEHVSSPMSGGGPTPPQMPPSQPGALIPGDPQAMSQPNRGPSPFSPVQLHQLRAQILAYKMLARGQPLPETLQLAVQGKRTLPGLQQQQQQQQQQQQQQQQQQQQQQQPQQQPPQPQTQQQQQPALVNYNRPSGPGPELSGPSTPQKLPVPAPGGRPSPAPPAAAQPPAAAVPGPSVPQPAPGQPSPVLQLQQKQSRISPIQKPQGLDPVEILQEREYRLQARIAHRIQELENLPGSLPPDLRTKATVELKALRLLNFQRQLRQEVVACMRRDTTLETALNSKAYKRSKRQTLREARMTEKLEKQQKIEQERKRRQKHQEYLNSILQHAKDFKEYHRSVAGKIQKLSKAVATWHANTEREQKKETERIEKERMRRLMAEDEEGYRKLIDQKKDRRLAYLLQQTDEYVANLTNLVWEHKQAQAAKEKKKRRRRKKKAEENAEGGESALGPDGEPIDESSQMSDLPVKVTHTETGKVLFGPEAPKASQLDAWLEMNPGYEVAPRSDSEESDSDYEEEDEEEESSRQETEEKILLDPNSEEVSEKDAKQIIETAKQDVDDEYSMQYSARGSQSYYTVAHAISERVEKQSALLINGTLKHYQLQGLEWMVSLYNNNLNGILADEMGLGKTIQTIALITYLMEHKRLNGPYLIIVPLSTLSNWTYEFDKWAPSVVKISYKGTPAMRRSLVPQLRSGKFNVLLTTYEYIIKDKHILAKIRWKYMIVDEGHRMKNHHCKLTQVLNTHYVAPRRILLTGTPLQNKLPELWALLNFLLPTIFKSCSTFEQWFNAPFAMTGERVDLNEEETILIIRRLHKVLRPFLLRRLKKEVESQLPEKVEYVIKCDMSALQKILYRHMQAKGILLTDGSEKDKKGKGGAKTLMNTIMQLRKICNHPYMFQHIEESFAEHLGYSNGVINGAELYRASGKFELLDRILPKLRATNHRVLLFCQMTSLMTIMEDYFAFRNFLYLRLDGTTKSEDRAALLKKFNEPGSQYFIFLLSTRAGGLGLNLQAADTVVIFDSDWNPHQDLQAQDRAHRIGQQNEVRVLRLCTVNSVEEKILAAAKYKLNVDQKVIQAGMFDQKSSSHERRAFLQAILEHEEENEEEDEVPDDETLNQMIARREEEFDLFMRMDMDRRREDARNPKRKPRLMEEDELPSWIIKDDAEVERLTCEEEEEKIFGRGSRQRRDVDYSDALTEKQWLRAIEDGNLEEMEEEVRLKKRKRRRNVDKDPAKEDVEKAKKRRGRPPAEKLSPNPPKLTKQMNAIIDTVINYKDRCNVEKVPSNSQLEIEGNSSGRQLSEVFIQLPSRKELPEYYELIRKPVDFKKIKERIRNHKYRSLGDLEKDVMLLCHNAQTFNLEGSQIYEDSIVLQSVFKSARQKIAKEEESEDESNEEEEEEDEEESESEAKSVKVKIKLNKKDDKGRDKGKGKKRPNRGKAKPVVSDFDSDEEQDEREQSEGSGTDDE

| Compound | BRM HiBit Degradation Maximum (%) [1] | DC50 [1] [nM] | Dmax [2] [%] | DC50 [2] [nM] |
| --- | --- | --- | --- | --- |
| Cc1ncsc1-c1ccc([C@H](C)NC(=O)[C@@H]2C[C@@H](O)CN2C(=O)[C@@H](c2cc(N3CC4(CC(c5cc6cc(-c7ccccc7O)nnc6s5)C4)C3)no2)C(C)C)cc1 (single isomer, unassigned) [Compound 1] | A (“A” indicates maximum degradation ≥75%) | < 10 | > 75 | > 10 |
| Cc1ncsc1-c1ccc([C@H](C)NC(=O)[C@@H]2C[C@@H](O)CN2C(=O)[C@@H](c2cc(-c3ccnc(N4CC[C@@H](c5sc6nnc(-c7ccccc7O)cc6c5C)C4)n3)no2)C(C)C)cc1 [Compound 7, (2S,4R)-4-hydroxy-1-((R)-2-(3-(2-((R)-3-(3-(2-hydroxyphenyl)-5-methylthieno[2,3-c]pyridazin-6-yl)pyrrolidin-1-yl)pyrimidin-4-yl)isoxazol-5-yl)-3-methylbutanoyl)-N-((S)-1-(4-(4-methylthiazol-5-yl)phenyl)ethyl)pyrrolidine-2-carboxamide] | C (“C” indicates maximum degradation <50%) | > 1000 | < 50 | > 1000 |
| Cc1ncsc1-c1ccc([C@H](C)NC(=O)[C@@H]2C[C@@H](O)CN2C(=O)[C@@H](c2cc(N3CCC4(CC[C@H](c5sc6nnc(-c7ccccc7O)cc6c5C)C4)CC3)no2)C(C)C)cc1 [Compound 81, (2S,4R)-4-hydroxy-1-((R)-2-(3-((S)-2-(3-(2-hydroxyphenyl)-5-methylthieno[2,3-c]pyridazin-6-yl)-8-azaspiro[4.5]decan-8-yl)isoxazol-5-yl)-3-methylbutanoyl)-N-((S)-1-(4-(4-methylthiazol-5-yl)phenyl)ethyl)pyrrolidine-2-carboxamide] | A (“A” indicates maximum degradation ≥75%) | > 10 | < 50 | – |
| Cc1ncsc1-c1ccc([C@H](C)NC(=O)[C@@H]2C[C@@H](O)CN2C(=O)C(c2cc([C@H]3CC[C@H](c4cnc(N5CCC(c6sc7nnc(-c8ccccc8O)cc7c6C)CC5)nc4)CC3)no2)C(C)C)cc1 (stereo partly drawn) [Compound 64, (2S,4R)-4-hydroxy-1-((R)-2-(3-((1s,4S)-4-(2-(4-(3-(2-hydroxyphenyl)-5-methylthieno[2,3-c]pyridazin-6-yl)piperidin-1-yl)pyrimidin-5-yl)cyclohexyl)isoxazol-5-yl)-3-methylbutanoyl)-N—((S)-1-(4-(4-methylthiazol-5-yl)phenyl)ethyl)pyrrolidine-2-carboxamide] | A (“A” indicates maximum degradation ≥75%) | < 10 | > 75 | > 10 |
| Cc1cc(N2CC[C@@H](c3sc4nnc(-c5ccccc5O)cc4c3C)C2)ncc1-c1cc([C@H](C(=O)N2C[C@H](O)C[C@H]2C(=O)N[C@@H](C)c2ccc(-c3scnc3C)cc2)C(C)C)on1 [Compound 96, (2S,4R)-4-hydroxy-1-((R)-2-(3-(6-((R)-3-(3-(2-hydroxyphenyl)-5-methylthieno[2,3-c]pyridazin-6-yl)pyrrolidin-1-yl)-4-methylpyridin-3-yl)isoxazol-5-yl)-3-methylbutanoyl)-N-((S)-1-(4-(4-methylthiazol-5-yl)phenyl)ethyl)pyrrolidine-2-carboxamide] | B (“B” indicates maximum degradation ≥50%) | > 10 | < 50 | – |
| COc1cc(-c2cc([C@H](C(=O)N3C[C@H](O)C[C@H]3C(=O)N[C@@H](C)c3ccc(-c4scnc4C)cc3)C(C)C)on2)cnc1N1CCC(c2sc3nnc(-c4ccccc4O)cc3c2C)CC1 [Compound 90, (2S,4R)-4-hydroxy-1-((R)-2-(3-(6-(4-(3-(2-hydroxyphenyl)-5-methylthieno[2,3-c]pyridazin-6-yl)piperidin-1-yl)-5-methoxypyridin-3-yl)isoxazol-5-yl)-3-methylbutanoyl)-N-((S)-1-(4-(4-methylthiazol-5-yl)phenyl)ethyl)pyrrolidine-2-carboxamide] | A (“A” indicates maximum degradation ≥75%) | < 10 | < 50 | – |
| Cc1ncsc1-c1ccc([C@H](C)NC(=O)[C@@H]2C[C@@H](O)CN2C(=O)C(c2cc(N3CC4(C3)CN(c3cc5nnc(-c6ccccc6O)cc5s3)C4)no2)C(C)C)cc1 (stereo partly drawn) [Compound 67, (2S,4R)-4-hydroxy-1-(2-(3-(6-(3-(2-hydroxyphenyl)thieno[3,2-c]pyridazin-6-yl)-2,6-diazaspiro[3.3]heptan-2-yl)isoxazol-5-yl)-3-methylbutanoyl)-N-((S)-1-(4-(4-methylthiazol-5-yl)phenyl)ethyl)pyrrolidine-2-carboxamide] | A (“A” indicates maximum degradation ≥75%) | < 10 | < 50 | – |
| Cc1ncsc1-c1ccc([C@H](C)NC(=O)[C@@H]2C[C@@H](O)CN2C(=O)[C@@H](c2cc(N3CCC4(CC3)CC(c3cc5nnc(-c6ccccc6O)cc5s3)C4)no2)C(C)C)cc1 [Compound 12, (2S,4R)-4-hydroxy-1-((R)-2-(3-(2-(3-(2-hydroxyphenyl)thieno[3,2-c]pyridazin-6-yl)-7-azaspiro[3.5]nonan-7-yl)isoxazol-5-yl)-3-methylbutanoyl)-N—((S)-1-(4-(4-methylthiazol-5-yl)phenyl)ethyl)pyrrolidine-2-carboxamide] | A (“A” indicates maximum degradation ≥75%) | < 10 | > 50 | > 100 |
| Cc1cc(-c2cc([C@H](C(=O)N3C[C@H](O)C[C@H]3C(=O)N[C@@H](C)c3ccc(-c4scnc4C)cc3)C(C)C)on2)ccc1N1CCC(c2sc3nnc(-c4ccccc4O)cc3c2C)CC1 (single isomer, unassigned) [Compound 3] | A (“A” indicates maximum degradation ≥75%) | > 10 | < 50 | > 1000 |
| Cc1ncsc1-c1ccc([C@H](C)NC(=O)[C@@H]2C[C@@H](O)CN2C(=O)[C@@H](c2cc(-c3ccc(N4CCC(c5sc6nnc(-c7ccccc7O)cc6c5C)CC4)c(F)c3)no2)C(C)C)cc1 [Compound 103, (2S,4R)-1-((R)-2-(3-(3-fluoro-4-(4-(3-(2-hydroxyphenyl)-5-methylthieno[2,3-c]pyridazin-6-yl)piperidin-1-yl)phenyl)isoxazol-5-yl)-3-methylbutanoyl)-4-hydroxy-N-((S)-1-(4-(4-methylthiazol-5-yl)phenyl)ethyl)pyrrolidine-2-carboxamide] | A (“A” indicates maximum degradation ≥75%) | < 10 | < 50 | – |
| Cc1ncsc1-c1ccc([C@H](C)NC(=O)[C@@H]2C[C@@H](O)CN2C(=O)[C@@H](c2cc(N3C[C@@H]4[C@H](C3)[C@H]4c3sc4nnc(-c5ccccc5O)cc4c3C)no2)C(C)C)cc1 [Compound 16, (2S,4R)-4-hydroxy-1-((R)-2-(3-((1R,5S,6R)-6-(3-(2-hydroxyphenyl)-5-methylthieno[2,3-c]pyridazin-6-yl)-3-azabicyclo[3.1.0]hexan-3-yl)isoxazol-5-yl)-3-methylbutanoyl)-N-((S)-1-(4-(4-methylthiazol-5-yl)phenyl)ethyl)pyrrolidine-2-carboxamide] | A (“A” indicates maximum degradation ≥75%) | < 10 | > 50 | > 10 |
| Cc1ncsc1-c1ccc([C@H](C)NC(=O)[C@@H]2C[C@@H](O)CN2C(=O)[C@@H](c2cc(-c3cnc(N4CCC(c5sc6nnc(-c7ccccc7O)cc6c5C5CC5)CC4)nc3)no2)C(C)C)cc1 [Compound 84, (2S,4R)-1-((R)-2-(3-(2-(4-(5-cyclopropyl-3-(2-hydroxyphenyl)thieno[2,3-c]pyridazin-6-yl)piperidin-1-yl)pyrimidin-5-yl)isoxazol-5-yl)-3-methylbutanoyl)-4-hydroxy-N-((S)-1-(4-(4-methylthiazol-5-yl)phenyl)ethyl)pyrrolidine-2-carboxamide] | B (“B” indicates maximum degradation ≥50%) | > 10 | < 50 | – |
| Cc1ncsc1-c1ccc([C@H](C)NC(=O)[C@@H]2C[C@@H](O)CN2C(=O)[C@@H](c2cc(N3CC(c4sc5nnc(-c6ccccc6O)cc5c4C)C3)no2)C(C)C)cc1 [Compound 19, (2S,4R)-4-hydroxy-1-((R)-2-(3-(3-(3-(2-hydroxyphenyl)-5-methylthieno[2,3-c]pyridazin-6-yl)azetidin-1-yl)isoxazol-5-yl)-3-methylbutanoyl)-N-((S)-1-(4-(4-methylthiazol-5-yl)phenyl)ethyl)pyrrolidine-2-carboxamide] | 2% | > 1000 | < 50 | > 1000 |
| Cc1ncsc1-c1ccc([C@H](C)NC(=O)[C@@H]2C[C@@H](O)CN2C(=O)[C@@H](c2cc(-c3ccc(N4CCC(c5cc6cc(-c7ccccc7O)nnc6s5)CC4)nc3)no2)C(C)C)cc1 [Compound 39, (2S,4R)-4-hydroxy-1-((R)-2-(3-(6-(4-(3-(2-hydroxyphenyl)thieno[2,3-c]pyridazin-6-yl)piperidin-1-yl)pyridin-3-yl)isoxazol-5-yl)-3-methylbutanoyl)-N-((S)-1-(4-(4-methylthiazol-5-yl)phenyl)ethyl)pyrrolidine-2-carboxamide] | A (“A” indicates maximum degradation ≥75%) | > 10 | < 50 | > 1000 |
| Cc1ncsc1-c1ccc([C@H](C)NC(=O)[C@@H]2C[C@@H](O)CN2C(=O)[C@@H](c2cc(N3CCC(c4cnc(N5CCC(c6sc7nnc(-c8ccccc8O)cc7c6C)CC5)nc4)CC3)no2)C(C)C)cc1 (single isomer, unassigned) [Compound 60] | A (“A” indicates maximum degradation ≥75%) | < 10 | > 50 | > 10 |

Source: patent US20250304596A1, “PYRAZINE DERIVATIVES AND USES THEREOF” (FOGHORN THERAPEUTICS INC., priority 2022, published 2025)
